# Where two headings read alike, the source gives them in different places.
# T1: P. falciparum ENR (PfENR), enoyl-acyl carrier protein reductase (Plasmodium falciparum, UniProt Q9BH77)
# T1 construct: gene FabI
# T1 sequence (Q9BH77 22-432): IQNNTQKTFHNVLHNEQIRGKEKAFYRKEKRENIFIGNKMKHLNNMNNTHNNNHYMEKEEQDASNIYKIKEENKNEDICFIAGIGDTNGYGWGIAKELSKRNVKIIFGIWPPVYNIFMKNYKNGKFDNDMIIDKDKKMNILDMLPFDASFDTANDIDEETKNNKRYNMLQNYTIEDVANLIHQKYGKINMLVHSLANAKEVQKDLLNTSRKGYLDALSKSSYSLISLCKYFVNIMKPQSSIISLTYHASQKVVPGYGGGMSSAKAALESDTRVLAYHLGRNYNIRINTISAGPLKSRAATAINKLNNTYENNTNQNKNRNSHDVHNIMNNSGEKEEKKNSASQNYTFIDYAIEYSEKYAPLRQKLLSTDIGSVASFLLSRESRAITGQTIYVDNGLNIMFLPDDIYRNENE
# B1: P. falciparum ENR (PfENR), enoyl-acyl carrier protein reductase (Plasmodium falciparum) (protein)
# chain: IQNNTQKTFHNVLHNEQIRGKEKAFYRKEKRENIFIGNKMKHLNNMNNTHNNNHYMEKEEQDASNIYKIKEENKNEDICFIAGIGDTNGYGWGIAKELSKRNVKIIFGIWPPVYNIFMKNYKNGKFDNDMIIDKDKKMNILDMLPFDASFDTANDIDEETKNNKRYNMLQNYTIEDVANLIHQKYGKINMLVHSLANAKEVQKDLLNTSRKGYLDALSKSSYSLISLCKYFVNIMKPQSSIISLTYHASQKVVPGYGGGMSSAKAALESDTRVLAYHLGRNYNIRINTISAGPLKSRAATAINKLNNTYENNTNQNKNRNSHDVHNIMNNSGEKEEKKNSASQNYTFIDYAIEYSEKYAPLRQKLLSTDIGSVASFLLSRESRAITGQTIYVDNGLNIMFLPDDIYRNENE
# Legend:
# [1] = biological target: T1, P. falciparum ENR (PfENR), enoyl-acyl carrier protein reductase; experiment: biochemical; type: binding
# [2] = biological target: T1, P. falciparum ENR (PfENR), enoyl-acyl carrier protein reductase; experiment: biochemical; type: binding; remark: listed apart in the source
# [3] = substrate: C/C=C/C(=O)SCCNC(=O)CCNC(=O)[C@H](O)C(C)(C)COP(=O)(O)OP(=O)(O)OC[C@H]1O[C@@H](n2cnc3c(N)ncnc32)[C@H](O)[C@@H]1OP(=O)(O)O; experiment: steady-state initial velocity kinetics (KM) with purified enzyme; no fluorescence change with free enzyme; type: biochemical, Plasmodium falciparum; conditions: NADH proposed to bind to a modified form of the enzyme (F) after NAD+ release
molecule,measurement,setting,value
CCCC(=O)SCCNC(=O)CCNC(=O)[C@H](O)C(C)(C)COP(=O)(O)OP(=O)(O)OC[C@H]1O[C@@H](n2cnc3c(N)ncnc32)[C@H](O)[C@@H]1OP(=O)(O)O [butyryl-CoA],Kd,[1],1150 µM
NC(=O)C1=CN([C@@H]2O[C@H](COP(=O)(O)OP(=O)(O)OC[C@H]3O[C@@H](n4cnc5c(N)ncnc54)[C@H](O)[C@@H]3O)[C@@H](O)[C@H]2O)C=CC1 [NADH],Kd,[2],398 µM
B1,Km,[3],63 µM

# Reference: article PMC3092583, “Enzyme Mechanism and Slow-Onset Inhibition of Plasmodium falciparum Enoyl-Acyl Carrier Protein Reductase by an Inorganic Complex” (2011)
